Results taken from patent publication US20260262643A1, “HERBICIDAL BENZOXAZINES” (FMC CORPORATION, priority 2022, published 2026).

Tests used:
barnyardgrass [1] = assay: Test C preemergence; type: in vivo, Echinochloa crusgalli; settings: 0 to 100 scale (0 no effect, 100 complete control); for Plant response rating, Barnyardgrass: Preemergence, 500 g ai/ha, visual rating after 10 days; for Barnyardgrass plant response rating: Test C, preemergence, 125 g ai/ha
Method in brief: (§1)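 Visual injury score, 0–100 (100 = complete control), taken 10 days after treatment relative to untreated controls. Pre: directed spray onto soil over sown seeds. Post: foliar spray at one- to two-leaf stage, 2–10 cm. Solvent/surfactant formulation; loam–sand soil; greenhouse.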

blackgrass [2] = assay: Test C preemergence; type: in vivo, Alopecurus myosuroides; settings: 0 to 100 scale (0 no effect, 100 complete control); for Plant response rating, Blackgrass: Preemergence, 500 g ai/ha, visual rating after 10 days; for Blackgrass plant response rating: Test C, preemergence, 125 g ai/ha
Method in brief: as §1

corn [3] = assay: Test C preemergence; type: in vivo, Zea mays; settings: 0 to 100 scale (0 no effect, 100 complete control); for Plant response rating, Corn: Preemergence, 500 g ai/ha, visual rating after 10 days; for Corn plant response rating: Test C, preemergence, 125 g ai/ha
Method in brief: as §1

green foxtail [4] = assay: Test C preemergence; type: in vivo, Setaria viridis; settings: 0 to 100 scale (0 no effect, 100 complete control); for Plant response rating, Foxtail, Green: Preemergence, 500 g ai/ha, visual rating after 10 days; for Foxtail, Green plant response rating: Test C, preemergence, 125 g ai/ha
Method in brief: as §1

kochia [5] = assay: Test C preemergence; type: in vivo, Bassia scoparia; settings: 0 to 100 scale (0 no effect, 100 complete control); for Plant response rating, Kochia: Preemergence, 500 g ai/ha, visual rating after 10 days; for Kochia plant response rating: Test C, preemergence, 125 g ai/ha
Method in brief: as §1

oat, wild [6] = assay: Test C preemergence; type: in vivo, Avena fatua; settings: 0 to 100 scale (0 no effect, 100 complete control); for Plant response rating, Oat, Wild: Preemergence, 500 g ai/ha, visual rating after 10 days; for Oat, Wild plant response rating: Test C, preemergence, 125 g ai/ha
Method in brief: as §1

pigweed, palmer [7] = assay: Test C preemergence; type: in vivo, Amaranthus palmeri; settings: 0 to 100 scale (0 no effect, 100 complete control); for Plant response rating, Pigweed, Palmer: Preemergence, 500 g ai/ha, visual rating after 10 days; for Pigweed, Palmer plant response rating: Test C, preemergence, 125 g ai/ha
Method in brief: as §1

ragweed [8] = assay: Test C preemergence; type: in vivo, Ambrosia artemisiifolia; settings: 0 to 100 scale (0 no effect, 100 complete control); for Plant response rating, Ragweed: Preemergence, 500 g ai/ha, visual rating after 10 days; for Ragweed plant response rating: Test C, preemergence, 125 g ai/ha
Method in brief: as §1

ryegrass, Italian [9] = assay: Test C preemergence; type: in vivo, Lolium multiflorum; settings: 0 to 100 scale (0 no effect, 100 complete control); for Plant response rating, Ryegrass, Italian: Preemergence, 500 g ai/ha, visual rating after 10 days; for Ryegrass, Italian plant response rating: Test C, preemergence, 125 g ai/ha
Method in brief: as §1

soybean [10] = assay: Test C preemergence; type: in vivo, Glycine max; settings: 0 to 100 scale (0 no effect, 100 complete control); for Plant response rating, Soybean: Preemergence, 500 g ai/ha, visual rating after 10 days; for Soybean plant response rating: Test C, preemergence, 125 g ai/ha
Method in brief: as §1

wheat [11] = assay: Test C preemergence; type: in vivo, Triticum aestivum; settings: 0 to 100 scale (0 no effect, 100 complete control); for Plant response rating, Wheat: Preemergence, 500 g ai/ha, visual rating after 10 days; for Wheat plant response rating: Test C, preemergence, 125 g ai/ha
Method in brief: as §1

barnyardgrass [12] = assay: Test C postemergence; type: in vivo, Echinochloa crusgalli; settings: 10 days
Method in brief: as §1

blackgrass [13] = assay: Test C postemergence; type: in vivo, Alopecurus myosuroides; settings: 10 days
Method in brief: as §1

corn [14] = assay: Test C postemergence; type: in vivo, Zea mays; settings: 10 days
Method in brief: as §1

green foxtail [15] = assay: Test C postemergence; type: in vivo, Setaria viridis; settings: 10 days
Method in brief: as §1

kochia [16] = assay: Test C postemergence; type: in vivo, Bassia scoparia; settings: 10 days
Method in brief: as §1

oat, wild [17] = assay: Test C postemergence; type: in vivo, Avena fatua; settings: 10 days
Method in brief: as §1

pigweed, palmer [18] = assay: Test C postemergence; type: in vivo, Amaranthus palmeri; settings: 10 days
Method in brief: as §1

ragweed [19] = assay: Test C postemergence; type: in vivo, Ambrosia artemisiifolia; settings: 10 days
Method in brief: as §1

ryegrass, Italian [20] = assay: Test C postemergence; type: in vivo, Lolium multiflorum; settings: 10 days
Method in brief: as §1

soybean [21] = assay: Test C postemergence; type: in vivo, Glycine max; settings: 10 days
Method in brief: as §1

wheat [22] = assay: Test C postemergence; type: in vivo, Triticum aestivum; settings: 10 days
Method in brief: as §1

galium = assay: Test C postemergence; type: in vivo, Galium aparine; settings: 10 days
Method in brief: as §1

horseweed = assay: Test C postemergence; type: in vivo, Erigeron canadensis; settings: 10 days
Method in brief: as §1

barnyardgrass [23] = assay: Test D flooded paddy test; type: in vivo, Echinochloa crus-galli; settings: 250 g ai/ha, applied to paddy water, visual rating after 13 to 14 days, scale 0 to 100 (0 no effect, 100 complete control)
Method in brief: (§2)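 At the 2-leaf stage, floodwater 3 cm deep received the test compound; that depth persisted throughout. Plants scored visually 13 to 14 days on, 0 (no effect) to 100 (complete control), dash indicating no result.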

ducksalad = assay: Test D flooded paddy test; type: in vivo, Heteranthera limosa; settings: 250 g ai/ha, applied to paddy water, visual rating after 13 to 14 days, scale 0 to 100 (0 no effect, 100 complete control)
Method in brief: as §2

rice = assay: Test D flooded paddy test; type: in vivo, Oryza sativa; settings: 250 g ai/ha, applied to paddy water, visual rating after 13 to 14 days, scale 0 to 100 (0 no effect, 100 complete control)
Method in brief: as §2

sedge, umbrella = assay: Test D flooded paddy test; type: in vivo, Cyperus difformis; settings: 250 g ai/ha, applied to paddy water, visual rating after 13 to 14 days, scale 0 to 100 (0 no effect, 100 complete control)
Method in brief: as §2

[24] = 125 g ai/ha, postemergence, 0 to 100 scale, 0 no effect, 100 complete control
[25] = Postemergence, 500 g ai/ha, visual 0 to 100 scale (0 no effect, 100 complete control)

Structure (SMILES): COc1ccc(-n2cnc(C(C)C)n2)cc1C(=O)N1C[C@H](C)Oc2c1cccc2C(F)(F)F [Compound 171]
- Plant response rating, Barnyardgrass (barnyardgrass [1]): 100
- Barnyardgrass plant response rating (barnyardgrass [1]): 90
- Plant response rating, Blackgrass (blackgrass [2]): 70
- Blackgrass plant response rating (blackgrass [2]): 70
- Plant response rating, Corn (corn [3]): 40
- Corn plant response rating (corn [3]): 30
- Plant response rating, Foxtail, Green (green foxtail [4]): 100
- Foxtail, Green plant response rating (green foxtail [4]): 100
- Plant response rating, Kochia (kochia [5]): 90
- Kochia plant response rating (kochia [5]): 90
- Plant response rating, Oat, Wild (oat, wild [6]): 80
- Oat, Wild plant response rating (oat, wild [6]): 70
- Plant response rating, Pigweed, Palmer (pigweed, palmer [7]): 100
- Pigweed, Palmer plant response rating (pigweed, palmer [7]): 100
- Plant response rating, Ragweed (ragweed [8]): 90
- Ragweed plant response rating (ragweed [8]): 60
- Plant response rating, Ryegrass, Italian (ryegrass, Italian [9]): 90
- Ryegrass, Italian plant response rating (ryegrass, Italian [9]): 50
- Plant response rating, Soybean (soybean [10]): 100
- Soybean plant response rating (soybean [10]): 60
- Plant response rating, Wheat (wheat [11]): 90
- Wheat plant response rating (wheat [11]): 40
- Plant response rating, Barnyardgrass (barnyardgrass [12]; [24]): 30
- Plant response rating, Barnyardgrass (barnyardgrass [12]; [25]): 40
- Plant response rating, Blackgrass (blackgrass [13]; [24]): 30
- Plant response rating, Blackgrass (blackgrass [13]; [25]): 80
- Plant response rating, Corn (corn [14]; [24]): 20
- Plant response rating, Corn (corn [14]; [25]): 20
- Plant response rating, Foxtail, Green (green foxtail [15]; [24]): 40
- Plant response rating, Foxtail, Green (green foxtail [15]; [25]): 50
- Plant response rating, Kochia (kochia [16]; [24]): 90
- Plant response rating, Kochia (kochia [16]; [25]): 90
- Plant response rating, Oat, Wild (oat, wild [17]; [24]): 10
- Plant response rating, Oat, Wild (oat, wild [17]; [25]): 50
- Plant response rating, Pigweed, Palmer (pigweed, palmer [18]; [24]): 100
- Plant response rating, Pigweed, Palmer (pigweed, palmer [18]; [25]): 100
- Plant response rating, Ragweed (ragweed [19]; [24]): 60
- Plant response rating, Ragweed (ragweed [19]; [25]): 70
- Plant response rating, Ryegrass, Italian (ryegrass, Italian [20]; [24]): 60
- Plant response rating, Ryegrass, Italian (ryegrass, Italian [20]; [25]): 80
- Plant response rating, Soybean (soybean [21]; [24]): 100
- Plant response rating, Soybean (soybean [21]; [25]): 100
- Plant response rating, Wheat (wheat [22]; [24]): 10
- Plant response rating, Wheat (wheat [22]; [25]): 40
- Plant response rating, Galium (galium; [24]): 100
- Plant response rating, Galium (galium; [25]): 100
- Plant response rating, Horseweed (horseweed; [24]): 20
- Plant response rating, Horseweed (horseweed; [25]): 80
- Plant response rating, Barnyardgrass (Flood) (barnyardgrass [23]): 0
- Plant response rating, Ducksalad (Flood) (ducksalad): 60
- Plant response rating, Rice (Flood) (rice): 0
- Plant response rating, Sedge, Umbrella (Flood) (sedge, umbrella): 95

Structure (SMILES): Cc1cccc2c1O[C@@H](C)CN2C(=O)c1cc(-n2cnc(C(C)C)n2)cc2occc12 [Compound 195]
- Plant response rating, Barnyardgrass (barnyardgrass [1]): 100
- Barnyardgrass plant response rating (barnyardgrass [1]): 90
- Plant response rating, Blackgrass (blackgrass [2]): 40
- Blackgrass plant response rating (blackgrass [2]): 30
- Plant response rating, Corn (corn [3]): 0
- Corn plant response rating (corn [3]): 0
- Plant response rating, Foxtail, Green (green foxtail [4]): 100
- Foxtail, Green plant response rating (green foxtail [4]): 100
- Plant response rating, Kochia (kochia [5]): 100
- Kochia plant response rating (kochia [5]): 70
- Plant response rating, Oat, Wild (oat, wild [6]): 80
- Oat, Wild plant response rating (oat, wild [6]): 20
- Plant response rating, Pigweed, Palmer (pigweed, palmer [7]): 100
- Pigweed, Palmer plant response rating (pigweed, palmer [7]): 100
- Plant response rating, Ragweed (ragweed [8]): 100
- Ragweed plant response rating (ragweed [8]): 60
- Plant response rating, Ryegrass, Italian (ryegrass, Italian [9]): 100
- Ryegrass, Italian plant response rating (ryegrass, Italian [9]): 80
- Plant response rating, Soybean (soybean [10]): 100
- Soybean plant response rating (soybean [10]): 70
- Plant response rating, Wheat (wheat [11]): 80
- Wheat plant response rating (wheat [11]): 0
- Plant response rating, Barnyardgrass (barnyardgrass [12]; [24]): 30
- Plant response rating, Barnyardgrass (barnyardgrass [12]; [25]): 60
- Plant response rating, Blackgrass (blackgrass [13]; [24]): 50
- Plant response rating, Blackgrass (blackgrass [13]; [25]): 90
- Plant response rating, Corn (corn [14]; [24]): 50
- Plant response rating, Corn (corn [14]; [25]): 80
- Plant response rating, Foxtail, Green (green foxtail [15]; [24]): 50
- Plant response rating, Foxtail, Green (green foxtail [15]; [25]): 90
- Plant response rating, Kochia (kochia [16]; [24]): 90
- Plant response rating, Kochia (kochia [16]; [25]): 100
- Plant response rating, Oat, Wild (oat, wild [17]; [24]): 10
- Plant response rating, Oat, Wild (oat, wild [17]; [25]): 90
- Plant response rating, Pigweed, Palmer (pigweed, palmer [18]; [24]): 90
- Plant response rating, Pigweed, Palmer (pigweed, palmer [18]; [25]): 100
- Plant response rating, Ragweed (ragweed [19]; [24]): 70
- Plant response rating, Ragweed (ragweed [19]; [25]): 70
- Plant response rating, Ryegrass, Italian (ryegrass, Italian [20]; [24]): 40
- Plant response rating, Ryegrass, Italian (ryegrass, Italian [20]; [25]): 80
- Plant response rating, Soybean (soybean [21]; [24]): 100
- Plant response rating, Soybean (soybean [21]; [25]): 100
- Plant response rating, Wheat (wheat [22]; [24]): 20
- Plant response rating, Wheat (wheat [22]; [25]): 50
- Plant response rating, Galium (galium; [24]): 90
- Plant response rating, Galium (galium; [25]): 100
- Plant response rating, Horseweed (horseweed; [24]): 90
- Plant response rating, Horseweed (horseweed; [25]): 70
- Plant response rating, Barnyardgrass (Flood) (barnyardgrass [23]): 45
- Plant response rating, Ducksalad (Flood) (ducksalad): 70
- Plant response rating, Rice (Flood) (rice): 0
- Plant response rating, Sedge, Umbrella (Flood) (sedge, umbrella): 98
